Assay results published in PubChem BioAssay AID256 (DTP/NCI, 2004).
Inconclusive results and toxic doses are left out.

System: CD2F1 mice, L1210 leukemia ip, survival T/C
Test: NCI In Vivo Anticancer Drug Screen. Data for tumor model L1210 Leukemia (intraperitoneal) in CD2F1 (CDF1) mice
Conditions: endpoint: mean survival time, higher = longer survival
How it was run: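 Implant tumor; dose compound or vehicle; measure endpoint in both groups; report treated divided by control.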

[1] = dose: 100.0 mg/kg/injection, schedule: Q01DX001 (ip), vehicle: saline
[2] = dose: 200.0 mg/kg/injection, schedule: Q01DX001 (ip), vehicle: saline
[3] = dose: 400.0 mg/kg/injection, schedule: Q01DX001 (ip), vehicle: saline
[4] = dose: 100.0 mg/kg/injection, schedule: Q01DX009 (ip), vehicle: saline with Tween-80
[5] = dose: 100.0 mg/kg/injection, schedule: Q04DX003 (ip), vehicle: saline with Tween-80
[6] = dose: 200.0 mg/kg/injection, schedule: Q04DX003 (ip), vehicle: saline with Tween-80
[7] = dose: 400.0 mg/kg/injection, schedule: Q04DX003 (ip), vehicle: saline with Tween-80
[8] = dose: 12.5 mg/kg/injection, schedule: Q01DX005 (ip), vehicle: water

In the case of `[Se]=[P+](OC1CCCCC1)OC1CCCCC1`, the T/C [1] is reported as 90 % of control, the T/C [2] is reported as 92 % of control and the T/C [3] is reported as 92 % of control.

With `O=Cc1c2ccccc2cc2ccccc12` the T/C (dose: 89.0 mg/kg/injection, schedule: Q01DX001 (ip), vehicle: saline) was 170 % of control, the T/C (dose: 133.0 mg/kg/injection, schedule: Q01DX001 (ip), vehicle: saline) was 167 % of control and the T/C [2] was 162 % of control.

In the case of `CCC(/C=N/N=C(N)N)=N\N=C(N)N`, the T/C (dose: 15.0 mg/kg/injection, schedule: Q01DX010 (ip), vehicle: saline) is reported as 95 % of control and the T/C (dose: 60.0 mg/kg/injection, schedule: Q01DX010 (ip), vehicle: saline) is reported as 101 % of control.

For `Cc1nn(-c2ccc(Cl)cc2)c(C)c1N=O`, the T/C (dose: 100.0 mg/kg/injection, schedule: Q01DX001 (ip), vehicle: saline with Tween-80) was 104 % of control.

In the case of `CNC(=O)OCC1C2=C(C(=O)C(C)=C(N)C2=O)N2CC3C(N3C)C12OC` (stereo unspecified), the T/C (dose: 75.0 mg/kg/injection, schedule: Q01DX001 (ip), vehicle: carboxymethylcellulose (CMC)) is reported as 113 % of control and the T/C (dose: 150.0 mg/kg/injection, schedule: Q01DX001 (ip), vehicle: carboxymethylcellulose (CMC)) is reported as 113 % of control.

`O=P(OCCCl)(OCCCl)C(Cl)Cl` was tested, and the T/C [1] was 96 % of control, the T/C [2] was 100 % of control and the T/C [3] was 97 % of control.

With `CC(=O)OCc1cc(C(C)(C)C)c(O)c(C(C)(C)C)c1` the T/C (dose: 100.0 mg/kg/injection, schedule: Q04DX003 (ip), vehicle: Klucel (hydroxypropylcellulose) (HPC)) was 101 % of control, the T/C (dose: 200.0 mg/kg/injection, schedule: Q04DX003 (ip), vehicle: Klucel (hydroxypropylcellulose) (HPC)) was 116 % of control and the T/C (dose: 400.0 mg/kg/injection, schedule: Q04DX003 (ip), vehicle: Klucel (hydroxypropylcellulose) (HPC)) was 115 % of control.

`Cc1c([N+](=O)[O-])cc(C(C)(C)C)c(OS(C)(=O)=O)c1[N+](=O)[O-]` was tested, and the T/C (dose: 100.0 mg/kg/injection, schedule: Q04DX002 (ip), vehicle: saline with Tween-80) was 105 % of control.

In the case of `CN1c2ccccc2N(C)c2ccccc21`, the T/C [4] is reported as 94 % of control, the T/C [5] is reported as 101 % of control and the T/C [6] is reported as 98 % of control. For the same molecule, the T/C [7] was 96 % of control.

In the case of `N=c1ncn(C2OC(COP(=O)(O)O)C(O)C2O)c2nc[nH]c12` (stereo unspecified), the T/C (dose: 0.78 mg/kg/injection, schedule: Q01DX005 (ip), vehicle: water) is reported as 102 % of control, the T/C (dose: 1.56 mg/kg/injection, schedule: Q01DX005 (ip), vehicle: water) is reported as 110 % of control and the T/C (dose: 3.13 mg/kg/injection, schedule: Q01DX005 (ip), vehicle: water) is reported as 105 % of control. The T/C (dose: 6.25 mg/kg/injection, schedule: Q01DX005 (ip), vehicle: water) was 111 % of control, the T/C (dose: 11.3 mg/kg/injection, schedule: Q01DX005 (ip), vehicle: water) was 98 % of control and the T/C [8] was 102 % of control. For the same molecule, the T/C (dose: 22.5 mg/kg/injection, schedule: Q01DX005 (ip), vehicle: water) was 98 % of control and the T/C (dose: 45.0 mg/kg/injection, schedule: Q01DX005 (ip), vehicle: water) was 102 % of control.

`CC(C)(C)OC(=O)NNC(c1ccccc1)c1ccccc1` was tested, and the T/C [4] was 101 % of control, the T/C [5] was 98 % of control and the T/C (dose: 200.0 mg/kg/injection, schedule: Q01DX009 (ip), vehicle: saline with Tween-80) was 95 % of control. For the same molecule, the T/C [6] was 95 % of control and the T/C [7] was 97 % of control.

`NC(=O)c1n[nH]c(C2CC(O)C(CO)O2)n1` (stereo unspecified) was tested, and the T/C [8] was 96 % of control, the T/C (dose: 25.0 mg/kg/injection, schedule: Q01DX005 (ip), vehicle: water) was 91 % of control and the T/C (dose: 50.0 mg/kg/injection, schedule: Q01DX005 (ip), vehicle: water) was 92 % of control. The T/C (dose: 100.0 mg/kg/injection, schedule: Q01DX005 (ip), vehicle: water) was 96 % of control and the T/C (dose: 200.0 mg/kg/injection, schedule: Q01DX005 (ip), vehicle: water) was 94 % of control.

`CN(Cc1cnc2nc(N)nc(N)c2n1)c1ccc(C(=O)NC(CCC(=O)NCc2ccccc2)C(=O)O)cc1` (stereo unspecified) was tested, and the T/C (dose: 5.0 mg/kg/injection, schedule: Q01DX009 (ip), vehicle: sodium bicarbonate) was 108 % of control and the T/C (dose: 10.0 mg/kg/injection, schedule: Q01DX009 (ip), vehicle: sodium bicarbonate) was 112 % of control.

With `[Cl][Pt][Cl].c1ccc([PH+](CC[PH+](c2ccccc2)c2ccccc2)c2ccccc2)cc1` the T/C (dose: 37.5 mg/kg/injection, schedule: Q04DX003 (ip), vehicle: saline) was 98 % of control, the T/C (dose: 75.0 mg/kg/injection, schedule: Q04DX003 (ip), vehicle: saline) was 93 % of control and the T/C (dose: 150.0 mg/kg/injection, schedule: Q04DX003 (ip), vehicle: saline) was 96 % of control. For the same molecule, the T/C (dose: 300.0 mg/kg/injection, schedule: Q04DX003 (ip), vehicle: saline) was 95 % of control.
